Measured values taken from patent US9821173B2, “Anti-cancer agents and methods of use” (Case Western Reserve University, priority 2013, dated 2017).
pIC50: −log10 of the molar value. “And” between values parts separate entries of the source, which are not always exact repeats. Equal entries are not always repeated.

Experiments:
CEM-C7 = assay: Cell proliferation / cytotoxicity assay; format: cell-based; conditions: cell viability, cell-titer blue, up to 48 hours
Experimental: HeLa, MCF-7, HCT-116, and CEM-C7 were obtained from the American Type Culture Collection (Manassas, Va., USA). All adherent cell lines were maintained in Dulbecco's modified Eagle's medium (Mediatech) with 100 U/ml penicillin (Invitrogen), 100 μg/ml streptomycin (Invitrogen), 0.25 μg/ml amphotericin B (Invitrogen), and 10% fetal bovine serum (USA Scientific) and incubated at 37° C. with 5% CO2. CEM cells were maintained in RPMI-1640 media supplemented with 100 U/ml penicillin, 100 μg/ml streptomycin, 0.25 μg/ml amphotericin B, and 10% fetal bovine serum and incubated at 37° C. with […].
Cells were plated at a density of 7,000-13,000/well in 200 μl of media overnight in a 96-well plate. Each (phosphine)gold(I)-indole was added to wells in a dose-dependent manner (0.01-100 μM). Cells were treated with compounds for variable time periods (8-48 hours). With adherent cell lines, medium was removed from the wells and then 100 μl of fresh medium was added into each well followed by the addition of 20 μl of cell titer-blue reagent (Promega). Cells were incubated with reagent for 1-4 hrs and the optical density of samples was read at 560 nm using a microplate reader. The background absorbance of dye with media was subtracted from each sample. Cell viability was then normalized against cells treated with DMSO. IC50 values were obtained using a fit of the data to Equation 1: Y=100%/[1+(IC50/Inhibitor)] (1)
where y is the fraction of viable cells, IC50 is the concentration of inhibitor that inhibits 50% cell growth, and Inhibitor is the concentration of compound tested.
The cellular effects of these (phosphine)gold(I) indoles were tested against several cancer cell lines including HeLa (cervical cancer), MCF-7 (breast cancer), HCT-116 (colon cancer), and CEM-C7 (leukemia). The dose-dependency of each modified indole on cell viability was assessed using a cell-titer blue assay as previously described. In these experiments, cells were exposed to variable concentrations of each (phosphine)gold(I) indole (0.01-100 μM) for up to 48 hours and then assessed for viability.
Defining this mechanism of cell death is important as necrosis can cause various side-effects including septic shock and kidney failure that can obviously compromise patient health.

HeLa cells [1] = assay: Measurements of apoptosis, dual parameter FACS with PI and annexin V; format: cell-based; conditions: 50 μM
Experimental: Cells were plated at 200,000/ml, Au(I)-Indole analogs were added in a dose-dependent fashion for 12-24 hr. Cells were trypsinized and then washed with cold PBS. After discarding the supernatant, a 100 μL solution containing 1× annexin-binding buffer, 5 μl of alexa fluor 488 Annexin V and 1 μg/ml of PI solution was added to each sample. The cells were incubated at room temperature for 15 min. After this incubation period, an additional 400 μl of 1× annexin-binding buffer was added. Cells were analyzed using a band pass filters with wavelengths of 525/40 nm and 620/30 nm with a Beckman Coulter XL flow cytometer.

HeLa cells [2] = conditions: for fold more sensitive to IR exposure than cells treated with IR alone: HeLa pre-treated 24 hour with compound 3 (4 μM) or compound 4 (7 μM)
Experimental: HeLa cells were plated at a density of 250,000-300,000 cells/mL. After 24 hr cells, the cells were irradiated in a dose dependent manner (0-4 Gy) using a ^137Cs gamma source. After treatment, the cells were trypsinized and plated at a density between 300-4000 cells in 60 mm dishes. Cells were allowed to grow colonies (1 colony≧50 cells) for 10-14 days, stained with 0.25% crystal violet, and manually counted to measure the number of colonies. Survival fractions were normalized against positive controls (colony formation with no radiation) and plotted as the log percent survival versus dose of radiation. Each experiment was performed an average of four (4) times with cells propagated on several different days.
In this case, we measured the effects of combining these (phosphine)gold(I) indoles with ionizing radiation (IR), a widely used therapy used to treat solid tumors. […] After this time frame, media containing the (phosphine)gold(I) indole was removed and replaced with fresh media. The cells were then irradiated in a dose-dependent fashion from 0 to 6 Gy. Cell viability was assessed using a clonogenic assay that measures colony formation and thus accurately defines the cytotoxic effects of IR exposure. […] The initial linear phase is particularly important as this reflects repair of non-lethal damage inflicted by clinically-relevant doses of IR (˜2 Gy).

CAMKK2 = biological target: T1, CAMKK2 (Homo sapiens, UniProt Q96RR4); assay: Kinase inhibition screening (Luceome); format: biochemical; conditions: 10 μM
T1 construct: purchased Luceome Biotechnologies (Tucson, Ariz.)
From the text: (§1) It is well established that dysfunctional and unregulated kinase activity plays significant roles in cancer initiation and progression. […] Inspection of the data provides several interesting observations. […] These inhibitory effects at this concentration are consistent with their measured IC50 values that are also in the μM range (Table 1). In addition, several kinases display overlapping inhibitory responses to both gold(I) compounds. Many of these are of particular interest since they are involved in cancer initiation and/or progression. For example, the Aurora kinase family members, Aurora A and Aurora B, as well as the MARK2 and MARK3 kinases function during mitosis to regulate cell division. These kinases are important therapeutic targets as their activities are often deregulated in many types of cancers. Other kinases such as RPS6KA3 and MLK3 are involved in the MAP kinase and JNK pathways which are also important in cancer progression.

PIM1 = biological target: T2, PIM1 (Homo sapiens, UniProt P11309); assay: Kinase inhibition screening (Luceome); format: biochemical; conditions: 10 μM
T2 construct: purchased Luceome Biotechnologies (Tucson, Ariz.)
From the text: as §1

MLK1 = biological target: T3, MLK1 (Homo sapiens, UniProt P80192); assay: Kinase inhibition screening (Luceome); format: biochemical; conditions: 10 μM
T3 construct: purchased Luceome Biotechnologies (Tucson, Ariz.)
From the text: as §1

AMPK-α2 = biological target: T4, AMPK-α2 (Homo sapiens, UniProt P54646); assay: Kinase inhibition screening (Luceome); format: biochemical; conditions: 10 μM
T4 construct: purchased Luceome Biotechnologies (Tucson, Ariz.)
From the text: as §1

DDR2 = biological target: T5, DDR2 (Homo sapiens, UniProt Q16832); assay: Kinase inhibition screening (Luceome); format: biochemical; conditions: 10 μM
T5 construct: purchased Luceome Biotechnologies (Tucson, Ariz.)
From the text: as §1

TNK2 = biological target: T6, TNK2 (Homo sapiens, UniProt Q07912); assay: Kinase inhibition screening (Luceome); format: biochemical; conditions: 10 μM
T6 construct: purchased Luceome Biotechnologies (Tucson, Ariz.)
From the text: as §1

VEGFR2 = biological target: T7, VEGFR2 (Homo sapiens, UniProt P35968); assay: Kinase inhibition screening (Luceome); format: biochemical; conditions: 10 μM
T7 construct: purchased Luceome Biotechnologies (Tucson, Ariz.)
From the text: as §1

AURKB = biological target: T8, AURKB (Homo sapiens, UniProt Q96GD4); assay: Kinase inhibition screening (Luceome); format: biochemical; conditions: 10 μM
T8 construct: purchased Luceome Biotechnologies (Tucson, Ariz.)
From the text: as §1

CAMK2D = biological target: T9, CAMK2D (Homo sapiens, UniProt Q13557); assay: Kinase inhibition screening (Luceome); format: biochemical; conditions: 10 μM
T9 construct: purchased Luceome Biotechnologies (Tucson, Ariz.)
From the text: as §1

MLK3 = biological target: T10, MLK3 (Homo sapiens, UniProt Q16584); assay: Kinase inhibition screening (Luceome); format: biochemical; conditions: 10 μM
T10 construct: purchased Luceome Biotechnologies (Tucson, Ariz.)
From the text: as §1

MET = biological target: T11, MET (Homo sapiens, UniProt P08581); assay: Kinase inhibition screening (Luceome); format: biochemical; conditions: 10 μM
T11 construct: purchased Luceome Biotechnologies (Tucson, Ariz.)
From the text: as §1

T3 sequence (P80192 whole entry): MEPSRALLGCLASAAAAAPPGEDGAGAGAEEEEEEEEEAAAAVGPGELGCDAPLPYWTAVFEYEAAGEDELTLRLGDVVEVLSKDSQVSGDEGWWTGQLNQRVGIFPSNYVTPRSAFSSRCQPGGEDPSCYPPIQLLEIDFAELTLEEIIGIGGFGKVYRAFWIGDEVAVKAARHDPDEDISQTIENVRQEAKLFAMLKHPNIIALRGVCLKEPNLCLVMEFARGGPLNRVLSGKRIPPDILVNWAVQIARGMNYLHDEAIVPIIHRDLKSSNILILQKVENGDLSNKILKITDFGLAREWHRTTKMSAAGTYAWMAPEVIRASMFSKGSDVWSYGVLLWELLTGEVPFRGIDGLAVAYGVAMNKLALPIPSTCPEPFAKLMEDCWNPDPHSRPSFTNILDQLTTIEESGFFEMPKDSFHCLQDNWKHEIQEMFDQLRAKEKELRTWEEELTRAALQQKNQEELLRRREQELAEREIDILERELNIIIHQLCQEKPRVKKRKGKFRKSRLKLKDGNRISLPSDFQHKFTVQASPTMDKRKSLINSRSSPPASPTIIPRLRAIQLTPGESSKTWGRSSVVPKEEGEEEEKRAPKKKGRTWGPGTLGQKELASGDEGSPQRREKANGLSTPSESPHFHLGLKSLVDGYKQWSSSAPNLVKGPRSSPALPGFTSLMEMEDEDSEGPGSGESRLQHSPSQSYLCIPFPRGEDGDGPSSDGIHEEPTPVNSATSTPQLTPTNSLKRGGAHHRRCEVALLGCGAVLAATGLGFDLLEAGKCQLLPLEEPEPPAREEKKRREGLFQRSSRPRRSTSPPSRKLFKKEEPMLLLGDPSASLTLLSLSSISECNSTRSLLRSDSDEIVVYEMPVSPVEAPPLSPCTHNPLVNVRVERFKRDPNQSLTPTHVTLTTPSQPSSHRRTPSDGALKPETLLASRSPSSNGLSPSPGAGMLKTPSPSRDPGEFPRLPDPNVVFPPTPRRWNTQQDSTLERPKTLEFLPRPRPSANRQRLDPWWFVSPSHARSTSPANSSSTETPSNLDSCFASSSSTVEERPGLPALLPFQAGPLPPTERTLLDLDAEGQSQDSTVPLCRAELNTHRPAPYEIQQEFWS
T10 sequence (Q16584 whole entry): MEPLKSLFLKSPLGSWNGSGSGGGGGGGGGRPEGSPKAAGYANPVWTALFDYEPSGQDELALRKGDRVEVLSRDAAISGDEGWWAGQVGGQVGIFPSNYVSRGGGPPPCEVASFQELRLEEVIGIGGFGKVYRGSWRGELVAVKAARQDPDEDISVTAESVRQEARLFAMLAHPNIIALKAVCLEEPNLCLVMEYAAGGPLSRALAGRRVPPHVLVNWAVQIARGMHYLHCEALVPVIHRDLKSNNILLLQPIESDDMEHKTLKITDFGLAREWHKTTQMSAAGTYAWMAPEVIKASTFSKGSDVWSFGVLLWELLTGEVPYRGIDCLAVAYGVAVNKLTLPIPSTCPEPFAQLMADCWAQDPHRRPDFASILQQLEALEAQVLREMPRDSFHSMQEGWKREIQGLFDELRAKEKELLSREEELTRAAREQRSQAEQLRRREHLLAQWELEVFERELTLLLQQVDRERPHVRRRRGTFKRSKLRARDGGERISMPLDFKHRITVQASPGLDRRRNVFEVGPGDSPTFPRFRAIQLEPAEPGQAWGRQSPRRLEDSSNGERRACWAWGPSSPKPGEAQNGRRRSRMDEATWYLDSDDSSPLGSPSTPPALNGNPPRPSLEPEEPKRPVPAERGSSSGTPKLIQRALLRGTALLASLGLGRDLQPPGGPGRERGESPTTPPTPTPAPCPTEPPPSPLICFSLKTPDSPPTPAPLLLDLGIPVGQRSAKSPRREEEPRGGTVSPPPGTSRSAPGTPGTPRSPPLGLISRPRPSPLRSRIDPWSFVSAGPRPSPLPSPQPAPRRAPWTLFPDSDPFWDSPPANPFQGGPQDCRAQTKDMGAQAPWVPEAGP
T4 sequence (P54646 whole entry): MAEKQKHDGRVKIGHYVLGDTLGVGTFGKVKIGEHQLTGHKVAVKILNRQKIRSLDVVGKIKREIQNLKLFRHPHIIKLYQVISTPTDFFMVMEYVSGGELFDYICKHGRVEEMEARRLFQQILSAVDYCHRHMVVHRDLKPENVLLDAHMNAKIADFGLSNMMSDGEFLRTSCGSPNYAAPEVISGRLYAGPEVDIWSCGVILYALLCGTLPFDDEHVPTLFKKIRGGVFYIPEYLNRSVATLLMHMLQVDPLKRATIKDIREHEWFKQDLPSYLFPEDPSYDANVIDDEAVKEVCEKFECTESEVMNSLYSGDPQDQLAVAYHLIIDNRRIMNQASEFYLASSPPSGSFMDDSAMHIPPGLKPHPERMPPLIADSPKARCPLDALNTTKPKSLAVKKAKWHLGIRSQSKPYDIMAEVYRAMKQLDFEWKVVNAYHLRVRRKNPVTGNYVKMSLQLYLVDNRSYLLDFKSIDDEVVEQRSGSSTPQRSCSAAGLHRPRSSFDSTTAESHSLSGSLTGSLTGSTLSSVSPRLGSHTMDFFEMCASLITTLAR
T8 sequence (Q96GD4 whole entry): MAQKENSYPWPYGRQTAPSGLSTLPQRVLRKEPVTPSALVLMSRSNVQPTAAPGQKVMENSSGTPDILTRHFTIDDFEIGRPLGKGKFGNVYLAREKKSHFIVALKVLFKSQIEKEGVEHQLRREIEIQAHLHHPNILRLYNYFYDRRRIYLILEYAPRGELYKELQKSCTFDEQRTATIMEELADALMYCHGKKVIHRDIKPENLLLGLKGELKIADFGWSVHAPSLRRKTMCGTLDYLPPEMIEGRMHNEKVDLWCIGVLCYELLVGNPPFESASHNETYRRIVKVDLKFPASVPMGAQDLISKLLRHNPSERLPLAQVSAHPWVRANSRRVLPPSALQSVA
T5 sequence (Q16832 22-855): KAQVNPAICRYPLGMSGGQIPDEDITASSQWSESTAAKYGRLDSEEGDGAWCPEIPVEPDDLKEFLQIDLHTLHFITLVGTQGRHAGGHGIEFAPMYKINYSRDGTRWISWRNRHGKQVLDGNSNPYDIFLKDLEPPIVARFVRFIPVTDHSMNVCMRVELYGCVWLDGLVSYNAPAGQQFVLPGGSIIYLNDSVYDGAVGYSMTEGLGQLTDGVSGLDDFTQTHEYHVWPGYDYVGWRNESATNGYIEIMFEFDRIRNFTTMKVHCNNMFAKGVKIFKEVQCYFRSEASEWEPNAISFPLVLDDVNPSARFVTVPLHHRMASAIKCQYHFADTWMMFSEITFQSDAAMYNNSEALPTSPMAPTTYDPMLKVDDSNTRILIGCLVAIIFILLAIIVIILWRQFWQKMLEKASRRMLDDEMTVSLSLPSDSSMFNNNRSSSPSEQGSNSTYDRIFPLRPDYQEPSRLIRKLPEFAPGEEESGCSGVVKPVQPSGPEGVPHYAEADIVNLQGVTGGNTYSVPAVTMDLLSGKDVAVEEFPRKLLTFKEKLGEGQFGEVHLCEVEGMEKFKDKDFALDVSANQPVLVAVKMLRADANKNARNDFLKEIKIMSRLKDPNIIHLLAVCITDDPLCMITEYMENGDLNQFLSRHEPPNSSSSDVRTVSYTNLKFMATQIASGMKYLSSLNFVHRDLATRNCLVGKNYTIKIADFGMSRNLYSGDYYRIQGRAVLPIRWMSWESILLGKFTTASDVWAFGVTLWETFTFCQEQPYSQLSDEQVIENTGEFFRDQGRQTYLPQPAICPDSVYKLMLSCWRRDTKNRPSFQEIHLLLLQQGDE
T1 sequence (Q96RR4 whole entry): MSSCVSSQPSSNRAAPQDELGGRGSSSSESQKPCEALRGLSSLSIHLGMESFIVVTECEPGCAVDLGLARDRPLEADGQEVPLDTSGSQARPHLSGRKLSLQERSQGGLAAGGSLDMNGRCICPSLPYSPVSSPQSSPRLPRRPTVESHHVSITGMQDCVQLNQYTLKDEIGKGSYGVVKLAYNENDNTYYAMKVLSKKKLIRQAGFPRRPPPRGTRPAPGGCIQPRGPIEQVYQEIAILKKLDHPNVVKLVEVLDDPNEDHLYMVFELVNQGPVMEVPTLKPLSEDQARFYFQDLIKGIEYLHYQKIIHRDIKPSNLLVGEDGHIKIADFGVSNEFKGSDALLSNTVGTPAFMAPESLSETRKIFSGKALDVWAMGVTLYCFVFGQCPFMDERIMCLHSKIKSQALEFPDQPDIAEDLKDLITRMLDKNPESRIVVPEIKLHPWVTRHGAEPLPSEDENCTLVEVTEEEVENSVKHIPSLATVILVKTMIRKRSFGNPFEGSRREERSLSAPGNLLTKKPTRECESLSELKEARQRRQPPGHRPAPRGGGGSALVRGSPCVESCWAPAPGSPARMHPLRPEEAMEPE
T9 sequence (Q13557 whole entry): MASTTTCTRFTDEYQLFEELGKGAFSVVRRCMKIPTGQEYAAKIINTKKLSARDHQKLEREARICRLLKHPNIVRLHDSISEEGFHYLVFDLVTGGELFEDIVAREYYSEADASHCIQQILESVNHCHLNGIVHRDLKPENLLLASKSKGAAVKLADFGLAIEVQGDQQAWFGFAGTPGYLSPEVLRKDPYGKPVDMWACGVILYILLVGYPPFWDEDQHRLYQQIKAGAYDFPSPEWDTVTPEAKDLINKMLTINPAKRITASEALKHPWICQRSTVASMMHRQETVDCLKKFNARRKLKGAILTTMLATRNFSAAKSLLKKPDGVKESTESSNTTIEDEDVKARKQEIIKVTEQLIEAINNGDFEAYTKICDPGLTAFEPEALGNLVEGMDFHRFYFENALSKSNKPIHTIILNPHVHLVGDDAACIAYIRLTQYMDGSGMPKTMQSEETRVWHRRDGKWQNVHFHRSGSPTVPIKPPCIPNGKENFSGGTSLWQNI

Row | SMILES | pIC50 (CEM-C7) | Early Apoptotic (%) (HeLa cells [1]; HeLa, 24 hours) | Late Apoptotic (%) (HeLa cells [1]; HeLa, 24 hours) | Live (%) (HeLa cells [1]; HeLa, 24 hours) | Necrotic (%) (HeLa cells [1]; HeLa, 24 hours) | fold more sensitive to IR exposure than cells treated with IR alone (HeLa cells [2]) [fold] | % Inhibition CAMKK2 (CAMKK2) [%] | % Inhibition PIM1 (PIM1) [%] | % Inhibition MLK1 (MLK1) [%] | % Inhibition AMPK-α2 (AMPK-α2) [%] | % Inhibition DDR2 (DDR2) [%] | % Inhibition TNK2 (TNK2) [%] | % Inhibition VEGFR2 (VEGFR2) [%] | % Inhibition AURKB (AURKB) [%] | % Inhibition CAMK2D (CAMK2D) [%] | % Inhibition MLK3 (MLK3) [%] | % Inhibition MET (MET) [%] | other results
1 | CC(C)(C)OC(=O)n1ccc2c[c]([Au-][P+](C3CCCCC3)(C3CCCCC3)C3CCCCC3)ccc21 [Compound 4, 5-{Tricyclohexylphosphine aurate(I)}-tert-butyl1H-indole-1-carboxylate] | 5.01 | 5.3% and 5.3 +/− 1.1% | 8.1% and 8.1 +/− 1.8% | 68.4 +/− 0.8% | 18.8 +/− 2.5% | ~4 | 7.9 | 10.6 | 42.2 | 0 | 0 | 2.2 | 5.8 | 24.5 | 0 | 43 | 23.3 | fold higher amount of late-stage apoptotic cells compared to compound 3 (HeLa cells [1]; HeLa): 2 fold; fold higher amount of necrosis compared to compound 3 (HeLa cells [1]; HeLa): ~9 fold
2 | CC(C)(C)OC(=O)n1ccc2c[c]([Au-][P+](c3ccccc3)(c3ccccc3)c3ccccc3)ccc21 [Compound 3, 5-{Triphenylphosphine aurate(I)}-tert-butyl1H-indole-1-carboxylate] | 4.70 | 8.8% and 8.8 +/− 0.7% | 4.3% and 4.3 +/− 1.8% | 84.4 +/− 3.0% | 2.4 +/− 0.8% | ~4 | 0 | 0 | 32.5 | 0 | 0 | 0 | 0 | 11.1 | 0 | 31.2 | 15.1 | fold increase in early stage apoptosis compared to DMSO (HeLa cells [1]; 24 hours): 6 fold; fold increase in late stage apoptosis compared to DMSO (HeLa cells [1]; 24 hours): ~10 fold; dose-modifying factor (HeLa cells [2]; ionizing radiation, HeLa): 4
